Measurements reported in PubChem BioAssay (NCI).
Where “and” joins values, the source holds several entries; their conditions need not be identical. Equal entries are not always repeated.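 Compound exposure: 48 hours, 5 concentrations, 96-well plates. GI50: concentration for 50% inhibition of growth. The concentration for full growth arrest is given as TGI.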

Columns and labels:
Test in all cases: NCI anticancer screen, dose series, 48 h
[1] = test system: 786-0 renal
[2] = test system: A498 renal
[3] = test system: ACHN renal
[4] = test system: CAKI-1 renal
[5] = test system: CCRF-CEM leukemia
[6] = test system: COLO 205 colon
[7] = test system: DLD-1 colon
[8] = test system: DMS 114 small cell lung
[9] = test system: DMS 273 small cell lung
[10] = test system: HCC-2998 colon
[11] = test system: HCT-116 colon
[12] = test system: HCT-15 colon
[13] = test system: HOP-18 NSCLC
[14] = test system: HOP-62 NSCLC
[15] = test system: HOP-92 NSCLC
[16] = test system: HT29 colon
[17] = test system: IGROV1 ovarian
[18] = test system: K-562 leukemia
[19] = test system: KM20L2 colon
[20] = test system: LOX IMVI melanoma
[21] = test system: LXFL 529 NSCLC
[22] = test system: M14 melanoma
[23] = test system: M19-MEL melanoma
[24] = test system: MOLT-4 leukemia
[25] = test system: NCI-H226 lung
[26] = test system: NCI-H23 lung
[27] = test system: NCI-H460 lung
[28] = test system: NCI-H522 lung
[29] = test system: OVCAR-3 ovarian
[30] = test system: OVCAR-4 ovarian
[31] = test system: OVCAR-5 ovarian
[32] = test system: OVCAR-8 ovarian
[33] = test system: RPMI-8226 leukemia
[34] = test system: RXF 393 renal
[35] = test system: SF-268 CNS
[36] = test system: SF-295 CNS
[37] = test system: SF-539 CNS
[38] = test system: SK-MEL-2 melanoma
[39] = test system: SK-MEL-28 melanoma
[40] = test system: SK-MEL-5 melanoma
[41] = test system: SK-OV-3 ovarian
[42] = test system: SN12C renal
[43] = test system: SNB-75 CNS
[44] = test system: SNB-78 CNS
[45] = test system: SR leukemia
[46] = test system: SW-620 colon
[47] = test system: TK-10 renal
[48] = test system: U251 CNS
[49] = test system: UACC-257 melanoma
[50] = test system: UACC-62 melanoma
[51] = test system: UO-31 renal
[52] = test system: A549 NSCLC
[53] = test system: EKVX NSCLC
[54] = test system: HL-60(TB) leukemia
[55] = test system: KM12 colon
[56] = test system: MALME-3M melanoma
[57] = test system: SNB-19 CNS
[58] = test system: XF 498 CNS

Cc1ccc(S(=O)C(C)C(Cl)c2ccccc2)cc1 (stereo not drawn)
TGI [1]: > 100 µM
TGI [2]: > 100 µM
TGI [3]: > 100 µM
TGI [4]: > 100 µM
TGI [5]: > 100 µM
TGI [6]: > 100 µM
TGI [7]: > 100 µM
TGI [8]: > 100 µM
TGI [9]: > 100 µM
TGI [10]: > 100 µM
TGI [11]: > 100 µM
TGI [12]: > 100 µM
TGI [13]: > 100 µM
TGI [14]: > 100 µM
TGI [15]: > 100 µM
TGI [16]: > 100 µM
TGI [17]: > 100 µM
TGI [18]: > 100 µM
TGI [19]: > 100 µM
TGI [20]: > 100 µM
TGI [21]: > 100 µM
TGI [22]: > 100 µM
TGI [23]: > 100 µM
TGI [24]: > 100 µM
TGI [25]: > 100 µM
TGI [26]: > 100 µM
TGI [27]: > 100 µM
TGI [28]: > 100 µM
TGI [29]: > 100 µM
TGI [30]: > 100 µM
TGI [31]: > 100 µM
TGI [32]: > 100 µM
TGI [33]: > 100 µM
TGI [34]: > 100 µM
TGI [35]: > 100 µM
TGI [36]: > 100 µM
TGI [37]: > 100 µM
TGI [38]: > 100 µM
TGI [39]: > 100 µM
TGI [40]: > 100 µM
TGI [41]: > 100 µM
TGI [42]: > 100 µM
TGI [43]: > 100 µM
TGI [44]: > 100 µM
TGI [45]: > 100 µM
TGI [46]: > 100 µM
TGI [47]: > 100 µM
TGI [48]: > 100 µM
TGI [49]: > 100 µM
TGI [50]: > 100 µM
TGI [51]: > 100 µM

C#C[C@]1(O)CC[C@H]2[C@@H]3CCc4cc(O)ccc4[C@H]3CC[C@@]21C
TGI [1]: > 100 µM
TGI [2]: 77.4 µM
TGI [52]: > 100 µM
TGI [3]: > 100 µM
TGI [4]: > 100 µM
TGI [5]: > 100 µM
TGI [6]: 92.7 µM
TGI [7]: 60.7 µM
TGI [8]: > 100 µM
TGI [53]: > 100 µM
TGI [10]: 73.8 µM
TGI [11]: > 100 µM
TGI [12]: > 100 µM
TGI [54]: 94 µM
TGI [13]: > 100 µM
TGI [15]: 95 µM
TGI [16]: 54.4 µM
TGI [17]: > 100 µM
TGI [55]: > 100 µM
TGI [19]: 38.9 µM
TGI [20]: > 100 µM
TGI [21]: > 100 µM
TGI [23]: 57.2 µM
TGI [56]: > 100 µM
TGI [24]: > 100 µM
TGI [25]: 92.8 µM
TGI [26]: 69.4 µM
TGI [27]: 82.5 µM
TGI [28]: 43.5 µM
TGI [29]: > 100 µM
TGI [31]: > 100 µM
TGI [32]: > 100 µM
TGI [34]: 62.2 µM
TGI [35]: > 100 µM
TGI [36]: 74.8 µM
TGI [37]: 40.4 µM
TGI [38]: 82.9 µM
TGI [39]: > 100 µM
TGI [40]: 52.2 µM
TGI [41]: 79.7 µM
TGI [42]: > 100 µM
TGI [57]: > 100 µM
TGI [43]: 42.8 µM
TGI [44]: > 100 µM
TGI [45]: > 100 µM
TGI [46]: > 100 µM
TGI [47]: > 100 µM
TGI [49]: > 100 µM
TGI [50]: > 100 µM
TGI [58]: 98 µM

O=c1c2cc(O)ccc2n2nnc3ccc(NCCNCCO)c1c32
TGI [1]: > 100 µM and 24 µM
GI50 [2]: 25.1 µM and 6.77 µM
TGI [2]: > 87.4 µM and 16.7 µM
GI50 [52]: 22.9 µM and 5.95 µM
TGI [52]: > 100 µM and 28.9 µM
GI50 [3]: 7.68 µM and 3.58 µM
TGI [3]: > 64.8 µM and 22.1 µM
TGI [4]: 43 µM and > 61.9 µM
GI50 [5]: 1.73 µM and 0.501 µM
TGI [5]: > 36.6 µM and 10.6 µM
TGI [6]: 50.9 µM and 21.7 µM
GI50 [7]: 23.9 µM and 6.6 µM
TGI [7]: > 100 µM and 40.7 µM
TGI [8]: 14.8 µM and 9.51 µM
TGI [9]: > 59.3 µM
TGI [53]: 97 µM and 48.1 µM
GI50 [10]: 10.9 µM and 3.43 µM
TGI [10]: 26.4 µM and 14.5 µM
TGI [11]: > 100 µM and 28.6 µM
TGI [12]: > 100 µM
GI50 [54]: 6.46 µM and 1.88 µM
TGI [54]: > 42.2 µM and 13.1 µM
TGI [13]: > 100 µM and 69.1 µM
GI50 [14]: 10.1 µM and 3.25 µM
TGI [14]: 43.4 µM and 18 µM
TGI [15]: 16.5 µM and 12.9 µM
TGI [16]: > 66.3 µM and 29.1 µM
GI50 [17]: 14.4 µM and 5.57 µM
TGI [17]: > 78.7 µM and 39.1 µM
GI50 [18]: 6.58 µM and 2.59 µM
TGI [18]: > 62.8 µM and 14.7 µM
TGI [55]: > 85.3 µM and 25.2 µM
GI50 [19]: 27.1 µM and 13.4 µM
TGI [19]: > 100 µM and 44.9 µM
TGI [20]: 13.4 µM and 10.2 µM
TGI [21]: 18.1 µM and 13 µM
GI50 [22]: 11.9 µM and 5.64 µM
TGI [22]: 31.2 µM and 17.9 µM
GI50 [23]: 6.8 µM and 2.68 µM
TGI [23]: 20.7 µM and 12.1 µM
GI50 [56]: 6.02 µM and 2.56 µM
TGI [56]: 20.5 µM and 11.5 µM
GI50 [24]: 1.83 µM and 0.205 µM
TGI [25]: 26.7 µM and 11.5 µM
TGI [26]: 42.3 µM and 20.2 µM
GI50 [27]: 28.9 µM and 4.01 µM
TGI [27]: > 57.4 µM and 23.6 µM
GI50 [28]: 0.582 µM and 1.47 µM
TGI [28]: 2.33 µM and 4.8 µM
GI50 [29]: 14.8 µM and 3.75 µM
TGI [29]: > 86 µM and 16.3 µM
TGI [30]: 33.2 µM and 15.9 µM
GI50 [31]: 22.5 µM and 9.69 µM
TGI [31]: > 100 µM and 34 µM
TGI [32]: 42 µM and 17.7 µM
TGI [33]: 65 µM and 31.7 µM
GI50 [34]: 3.26 µM and 1.15 µM
TGI [34]: 14.4 µM and 9.34 µM
TGI [35]: 11.2 µM and 13.1 µM
TGI [36]: > 45.5 µM and 35.2 µM
TGI [37]: 15.9 µM and 14.9 µM
GI50 [38]: 9.4 µM and 4.34 µM
TGI [38]: 23.5 µM and 13.5 µM
GI50 [39]: 9.78 µM and 4.3 µM
TGI [39]: 22.7 µM and 16.2 µM
GI50 [40]: 12.9 µM and 2.39 µM
TGI [40]: 28.9 µM and 11.7 µM
TGI [41]: > 100 µM and 37 µM
GI50 [42]: 5.78 µM and 2.85 µM
TGI [42]: 51.9 µM and 18.4 µM
TGI [57]: 39.4 µM and 29.1 µM
GI50 [43]: 2.68 µM and 5.5 µM
TGI [43]: 17 µM and 18.3 µM
GI50 [44]: 4.78 µM and 2.11 µM
TGI [44]: > 55.9 µM and 14.4 µM
TGI [45]: 14.7 µM and 4.29 µM
GI50 [46]: 5.16 µM and 1.55 µM
TGI [46]: > 88.5 µM and 14.8 µM
GI50 [47]: 3.75 µM and 9.62 µM
TGI [47]: > 50 µM and 60.8 µM
TGI [48]: 7.43 µM and 13.3 µM
GI50 [49]: 20.5 µM and 6.76 µM
TGI [49]: 53.8 µM and 20.7 µM
GI50 [50]: 6.87 µM and 3.14 µM
TGI [50]: 19.4 µM and 13.3 µM
TGI [51]: > 100 µM and 70.2 µM
TGI [58]: 12.4 µM
